# Assay results reported in article PMC6749364, “Pharmacokinetics and Tissue Distribution of Alnustone in Rats after Intravenous Administration by Liquid Chromatography-Mass Spectrometry” (Molecules, 2019).
# Experiments:
# [1] = Plasma pharmacokinetic study after single intravenous administration; format: in vivo; conditions: Sprague-Dawley, rat, rats, single i.v. 5 mg/kg
# Method: In this study, a direct protein precipitation method was applied to extract alnustone and IS from the biological matrix. An aliquot 100 μL of plasma, 50 μL of IS solution (1 μg/mL) and 200 μL of precipitate agent acetonitrile with 0.5% formic acid was added into a 1.5 mL Eppendorf tube. The mixture was vortex-mixed for 30 s at room temperature, and centrifuged at 12,000× g for 10 min. […] The residuals were reconstituted in 100 μL of methanol-0.1% fomic acid water (20:80, v/v) by vortex mixing for 30 s. After centrifuging at 12,000× g for 10 min, a 10 μL aliquot of the supernatant was used for the UHPLC-MS/MS analysis. The mobile phase consisted of methanol and 0.1% formic acid water using a gradient dilution at a flow rate of 0.3 mL/min. The column temperature was maintained at 30 °C. Alnustone was quantitatively determined with MRM in the positive ion mode, and nitrogen was used to assist nebulization in the ESI source. The MS parameters were set as follows: The ionspray voltage (IS) 5500 V; nebulizer gas (gas 1) 19 arbitrary units; curtain gas (CUR) 10 arbitrary units; collision cell exit potential (CXP) 7.0 V; entrance potential (EP) 10.0 V. The optimization of the MS transitions using the multiple-reaction monitoring (MRM) mode were accomplished as alnustone m/z 262.9→105.2 and IS (caffeine) m/z 195.2→138.0, respectively. For the pharmacokinetic study, 12 SD rats fasted for 12 h with free access to water prior to administration. After the rats were tail intravenously administrated of alnustone (5 mg/kg), a blood sample (0.4 mL) was collected from the orbital vein into heparinized tubes at appropriate time intervals (2 min, 5 min, 10 min, 15 min, 30 min, 45 min, 1 […]). The blank plasma samples were prepared before dosing. All blood samples were immediately centrifuged at 12,000× g for 10 min and stored at -75 °C until analysis. The pharmacokinetic parameters were evaluated using DAS 3.2.8 pharmacokinetic program.
# [2] = Tissue distribution study after intravenous administration; format: in vivo, Sprague-Dawley rats; conditions: rats, i.v. 5 mg/kg; for Kp at 0.5 h / Kp at 1 h / Kp at 4 h / Kp at 2 h: n = 5
# Method: The rat was sacrificed quickly by decapitation on the ice. The various tissues (heart, liver, spleen, lung, kidney, brain, stomach, intestine) were harvested and rinsed with ice-cold 0.9% NaCl to remove the superficial blood. After being blotted dry with filter paper, each tissue sample was weighed on ice and physiological saline added ([…]) to homogenize. Then, a 100 μL (equivalent to 50 mg) of tissue homogenate was taken and processed using the same method as the plasma samples processing method as shown in the above steps.
# The mobile phase consisted of methanol and 0.1% formic acid water using a gradient dilution at a flow rate of 0.3 mL/min. The column temperature was maintained at 30 °C. Alnustone was quantitatively determined with MRM in the positive ion mode, and nitrogen was used to assist nebulization in the ESI source. The MS parameters were set as follows: The ionspray voltage (IS) 5500 V; nebulizer gas (gas 1) 19 arbitrary units; curtain gas (CUR) 10 arbitrary units; collision cell exit potential (CXP) 7.0 V; entrance potential (EP) 10.0 V. The optimization of the MS transitions using the multiple-reaction monitoring (MRM) mode were accomplished as alnustone m/z 262.9→105.2 and IS (caffeine) m/z 195.2→138.0, respectively.
# For the tissue distribution study, 20 SD rats were randomly divided into four groups (5 rats for each time point) and fasted for 12 h with free access to water prior to administration. After the rats were tail intravenously administrated of alnustone (5 mg/kg), the tissue specimens (heart, liver, spleen, lung, kidney, brain, stomach and intestine) were collected at 0.5, 1, 2, and 4 h post-dosing, respectively. The blank tissues were prepared separately using drug-free SD rats. The tissue harvesting and homogenizing method were given in Section 3.5. For the plasma and tissue homogenate sample preparation method, also see Section 3.5.
# [3] = Sprague-Dawley, rat, iv, Intestine
# [4] = Sprague-Dawley, rat, iv, Kidney
# [5] = Sprague-Dawley, rat, iv, Spleen
# [6] = Sprague-Dawley, rat, iv, Stomach
structure (smiles),measurement,setting,value
"O=C(/C=C/C=C/c1ccccc1)CCc1ccccc1 [alnustone, Alnustone]",Tmax,[1],2 min
same,AUC(0-inf),[1]; n = 12,6030 ± 472 ng·h/mL
same,Cmax,[1]; n = 12,7070 ± 821 ng/mL
same,Vd,[1]; n = 12,1.57 ± 0.18 L/kg
same,clearance,[1]; n = 12,13.8 mL/min/kg
same,half-life,[1]; n = 12,1.31 ± 0.19 h
same,MRT inf,"[1]; n = 12, read-out: MRT0–∞",1.6 ± 0.22 h
same,MRT last,[1]; read-out: MRT0-t (total mean residence time up to 10 h),1.6 ± 0.22 h
same,AUC(0-t),"[1]; up to 10 h, n = 12",6010 ± 567 ng·h/mL
same,Kp at 0.5 h,"[2]; Sprague-Dawley, rat, iv, Brain",0.11 ± 0.4
same,Kp at 1 h,"[2]; Sprague-Dawley, rat, iv, Brain",0.21 ± 0.56
same,Kp at 4 h,"[2]; Sprague-Dawley, rat, iv, Brain, 4 h",1.03 ± 0.08
same,Kp at 0.5 h,"[2]; Sprague-Dawley, rat, iv, Heart",0.36 ± 0.06
same,Kp at 1 h,"[2]; Sprague-Dawley, rat, iv, Heart",0.42 ± 0.1
same,Kp at 2 h,"[2]; Sprague-Dawley, rat, iv, Heart",0.59 ± 0.17
same,Kp at 4 h,"[2]; Sprague-Dawley, rat, iv, Heart, 4 h",1.78 ± 0.24
same,Kp at 0.5 h,[2]; [3],0.39 ± 0.07
same,Kp at 1 h,[2]; [3],0.66 ± 0.12
same,Kp at 2 h,[2]; [3],0.88 ± 0.19
same,Kp at 4 h,"[2]; Sprague-Dawley, rat, iv, Intestine, 4 h",1.18 ± 0.2
same,Kp at 0.5 h,[2]; [4],0.58 ± 0.07
same,Kp at 1 h,[2]; [4],0.74 ± 0.11
same,Kp at 2 h,[2]; [4],1.49 ± 0.27
same,Kp at 4 h,"[2]; Sprague-Dawley, rat, iv, Kidney, 4 h",1.86 ± 0.18
same,Kp at 0.5 h,"[2]; Sprague-Dawley, rat, iv, Liver",1.28 ± 0.34
same,Kp at 1 h,"[2]; Sprague-Dawley, rat, iv, Liver",1.31 ± 0.18
same,Kp at 2 h,"[2]; Sprague-Dawley, rat, iv, Liver",1.28 ± 0.29
same,Kp at 4 h,"[2]; Sprague-Dawley, rat, iv, Liver, 4 h",5.48 ± 0.66
same,Kp at 0.5 h,"[2]; Sprague-Dawley, rat, iv, Lung",1.3 ± 0.09
same,Kp at 1 h,"[2]; Sprague-Dawley, rat, iv, Lung",3.39 ± 0.39
same,Kp at 2 h,"[2]; Sprague-Dawley, rat, iv, Lung",4.55 ± 0.61
same,Kp at 4 h,"[2]; Sprague-Dawley, rat, iv, Lung, 4 h",15.8 ± 1.33
same,Kp at 0.5 h,[2]; [5],0.46 ± 0.06
same,Kp at 1 h,[2]; [5],1.24 ± 0.13
same,Kp at 2 h,[2]; [5],0.7 ± 0.06
same,Kp at 4 h,"[2]; Sprague-Dawley, rat, iv, Spleen, 4 h",1.54 ± 0.32
same,Kp at 0.5 h,[2]; [6],0.64 ± 0.14
same,Kp at 1 h,[2]; [6],0.52 ± 0.11
same,Kp at 2 h,[2]; [6],0.7 ± 0.03
same,Kp at 4 h,"[2]; Sprague-Dawley, rat, iv, Stomach, 4 h",3.66 ± 0.27
same,concentration at 4 h,"[2]; Sprague-Dawley, rat, iv, brain, 4 h",567 ng/mL
same,highest mean concentration in tissue,[2]; brain,344.27 ng/g
same,time of maximum tissue concentration,[2]; brain,1 h
same,highest mean concentration in tissue,[2]; heart,900.97 ng/g
same,highest mean concentration in tissue,[2]; intestine,1099.14 ng/g
same,time of maximum tissue concentration,[2]; intestine,1 h
same,highest mean concentration in tissue,[2]; kidney,1450.43 ng/g
same,highest mean concentration in tissue,[2]; liver,3199.49 ng/g
same,highest mean concentration in tissue,[2]; lung,5685.40 ng/g
same,time of maximum tissue concentration,[2]; lung,1 h
same,blood-brain barrier penetration,[2],could enter the brain through the blood-brain barrier
same,highest mean concentration in tissue,[2]; spleen,2077.14 ng/g
same,time of maximum tissue concentration,[2]; spleen,1 h
same,highest mean concentration in tissue,[2]; stomach,1588.90 ng/g
